Laboratory results taken from the NIST ThermoML archive (doi:10.1016/j.jct.2013.09.041).
Numbers after ± are expanded uncertainties.

Columns and labels:
[1] = 323.15 K, 101.33 kPa, Liquid; for speed of sound: Sing-around technique in a fixed-path interferometer; for mass density: Vibrating tube method
[2] = mn = molality of the nth substance listed, in mol/kg; details: 323.15 K, 101 kPa, Liquid, Vibrating tube method
[3] = osmotic coefficient (dimensionless); mn = molality of the nth substance listed, in mol/kg; details: 323.15 K, 101 kPa, Liquid, A Knauer K-7000 vapor pressure osmometer

CCCCCCn1cc[n+](C)c1.O=S(=O)([O-])C(F)(F)F [1-hexyl-3-methylimidazolium trifluoromethanesulfonate]
[1]
Details | mass density [kg/m3] | speed of sound [m/s]
– | 1217.24 ± 0.41 | 1327.2 ± 1.3

CCCCCCn1cc[n+](C)c1.O=S(=O)([O-])C(F)(F)F [1-hexyl-3-methylimidazolium trifluoromethanesulfonate] + CC(C)O
Details | mass density [kg/m3] | osmotic coefficient
[2], m1 = 0.051 | 763.8 ± 0.23 | –
[2], m1 = 0.102 | 768.55 ± 0.23 | –
[2], m1 = 0.152 | 773.15 ± 0.22 | –
[2], m1 = 0.204 | 777.8 ± 0.22 | –
[2], m1 = 0.252 | 782.08 ± 0.21 | –
[2], m1 = 0.301 | 786.21 ± 0.21 | –
[2], m1 = 0.355 | 790.72 ± 0.21 | –
[2], m1 = 0.404 | 794.75 ± 0.2 | –
[2], m1 = 0.455 | 798.81 ± 0.2 | –
[2], m1 = 0.504 | 802.65 ± 0.2 | –
[2], m1 = 0.606 | 810.57 ± 0.19 | –
[2], m1 = 0.709 | 818.13 ± 0.19 | –
[2], m1 = 0.802 | 824.81 ± 0.18 | –
[2], m1 = 0.908 | 831.9 ± 0.18 | –
[2], m1 = 1.012 | 838.62 ± 0.17 | –
[3], m1 = 0.026 | – | 0.991 ± 0.013
[3], m1 = 0.043 | – | 0.954 ± 0.012
[3], m1 = 0.1 | – | 0.886 ± 0.013
[3], m1 = 0.2 | – | 0.758 ± 0.015
[3], m1 = 0.305 | – | 0.659 ± 0.017
[3], m1 = 0.412 | – | 0.616 ± 0.018
[3], m1 = 0.526 | – | 0.585 ± 0.019
[3], m1 = 0.819 | – | 0.538 ± 0.02
[3], m1 = 1.221 | – | 0.476 ± 0.022
[3], m1 = 1.62 | – | 0.444 ± 0.023
[3], m1 = 2.033 | – | 0.42 ± 0.024
[3], m1 = 2.449 | – | 0.387 ± 0.025
[3], m1 = 2.822 | – | 0.378 ± 0.025
[3], m1 = 3.344 | – | 0.364 ± 0.025
[3], m1 = 3.646 | – | 0.359 ± 0.026

CCCCCCn1cc[n+](C)c1.O=S(=O)([O-])C(F)(F)F [1-hexyl-3-methylimidazolium trifluoromethanesulfonate] + CCC(C)O
Details | mass density [kg/m3] | osmotic coefficient
[2], m1 = 0.052 | 785.45 ± 0.23 | –
[2], m1 = 0.102 | 789.95 ± 0.23 | –
[2], m1 = 0.153 | 794.44 ± 0.23 | –
[2], m1 = 0.203 | 798.75 ± 0.22 | –
[2], m1 = 0.302 | 806.95 ± 0.22 | –
[2], m1 = 0.352 | 810.99 ± 0.22 | –
[2], m1 = 0.403 | 815.07 ± 0.21 | –
[2], m1 = 0.45 | 818.65 ± 0.21 | –
[2], m1 = 0.5029 | 822.68 ± 0.21 | –
[2], m1 = 0.597 | 829.6 ± 0.2 | –
[2], m1 = 0.7 | 836.92 ± 0.2 | –
[2], m1 = 0.797 | 843.69 ± 0.2 | –
[2], m1 = 0.907 | 850.73 ± 0.19 | –
[2], m1 = 1.002 | 856.64 ± 0.19 | –
[3], m1 = 0.056 | – | 0.823 ± 0.014
[3], m1 = 0.079 | – | 0.797 ± 0.014
[3], m1 = 0.107 | – | 0.76 ± 0.015
[3], m1 = 0.215 | – | 0.626 ± 0.018
[3], m1 = 0.296 | – | 0.576 ± 0.019
[3], m1 = 0.401 | – | 0.513 ± 0.021
[3], m1 = 0.513 | – | 0.487 ± 0.022
[3], m1 = 0.809 | – | 0.426 ± 0.024
[3], m1 = 1.206 | – | 0.393 ± 0.025
[3], m1 = 1.608 | – | 0.38 ± 0.025
[3], m1 = 2.032 | – | 0.362 ± 0.026
[3], m1 = 2.426 | – | 0.351 ± 0.026
[3], m1 = 2.776 | – | 0.342 ± 0.026
[3], m1 = 3.311 | – | 0.337 ± 0.026
[3], m1 = 3.703 | – | 0.332 ± 0.026

CCCCCCn1cc[n+](C)c1.O=S(=O)([O-])C(F)(F)F [1-hexyl-3-methylimidazolium trifluoromethanesulfonate] + CCCCCO
Details | mass density [kg/m3] | osmotic coefficient
[2], m1 = 0.05 | 796.7 ± 0.29 | –
[2], m1 = 0.1 | 801.05 ± 0.29 | –
[2], m1 = 0.151 | 805.37 ± 0.29 | –
[2], m1 = 0.202 | 809.6 ± 0.29 | –
[2], m1 = 0.254 | 813.84 ± 0.29 | –
[2], m1 = 0.3 | 817.52 ± 0.28 | –
[2], m1 = 0.401 | 825.41 ± 0.28 | –
[2], m1 = 0.498 | 832.62 ± 0.28 | –
[2], m1 = 0.61 | 840.59 ± 0.27 | –
[2], m1 = 0.705 | 847.05 ± 0.27 | –
[2], m1 = 0.803 | 853.55 ± 0.27 | –
[2], m1 = 0.849 | 856.48 ± 0.26 | –
[2], m1 = 1 | 865.7 ± 0.26 | –
[3], m1 = 0.053 | – | 0.784 ± 0.019
[3], m1 = 0.084 | – | 0.599 ± 0.021
[3], m1 = 0.108 | – | 0.51 ± 0.021
[3], m1 = 0.194 | – | 0.44 ± 0.023
[3], m1 = 0.313 | – | 0.392 ± 0.025
[3], m1 = 0.415 | – | 0.345 ± 0.026
[3], m1 = 0.512 | – | 0.331 ± 0.027
[3], m1 = 0.829 | – | 0.299 ± 0.028
[3], m1 = 1.216 | – | 0.293 ± 0.028
[3], m1 = 1.64 | – | 0.276 ± 0.028
[3], m1 = 2.047 | – | 0.27 ± 0.028
[3], m1 = 2.461 | – | 0.255 ± 0.029
[3], m1 = 2.845 | – | 0.244 ± 0.029
[3], m1 = 3.322 | – | 0.226 ± 0.03

CCCCCCn1cc[n+](C)c1.O=S(=O)([O-])C(F)(F)F [1-hexyl-3-methylimidazolium trifluoromethanesulfonate] + CCCCO
Details | mass density [kg/m3] | osmotic coefficient
[2], m1 = 0.052 | 791.18 ± 0.22 | –
[2], m1 = 0.103 | 795.76 ± 0.21 | –
[2], m1 = 0.152 | 799.99 ± 0.21 | –
[2], m1 = 0.202 | 804.23 ± 0.2 | –
[2], m1 = 0.254 | 808.45 ± 0.2 | –
[2], m1 = 0.303 | 812.46 ± 0.2 | –
[2], m1 = 0.353 | 816.43 ± 0.2 | –
[2], m1 = 0.405 | 820.46 ± 0.19 | –
[2], m1 = 0.448 | 823.73 ± 0.19 | –
[2], m1 = 0.504 | 827.88 ± 0.19 | –
[2], m1 = 0.598 | 834.75 ± 0.18 | –
[2], m1 = 0.701 | 841.92 ± 0.18 | –
[2], m1 = 0.792 | 848.08 ± 0.17 | –
[2], m1 = 0.906 | 855.49 ± 0.17 | –
[2], m1 = 1.01 | 861.88 ± 0.17 | –
[3], m1 = 0.028 | – | 0.828 ± 0.018
[3], m1 = 0.045 | – | 0.721 ± 0.02
[3], m1 = 0.114 | – | 0.599 ± 0.019
[3], m1 = 0.198 | – | 0.543 ± 0.02
[3], m1 = 0.302 | – | 0.482 ± 0.022
[3], m1 = 0.427 | – | 0.453 ± 0.023
[3], m1 = 0.526 | – | 0.434 ± 0.023
[3], m1 = 0.81 | – | 0.399 ± 0.024
[3], m1 = 1.224 | – | 0.356 ± 0.026
[3], m1 = 1.64 | – | 0.339 ± 0.026
[3], m1 = 2.045 | – | 0.329 ± 0.027
[3], m1 = 2.417 | – | 0.313 ± 0.027
[3], m1 = 2.827 | – | 0.298 ± 0.028
[3], m1 = 3.312 | – | 0.282 ± 0.028

CCCCCCn1cc[n+](C)c1.O=S(=O)([O-])C(F)(F)F [1-hexyl-3-methylimidazolium trifluoromethanesulfonate] + CCCO
Details | mass density, [2] [kg/m3] | osmotic coefficient, [3]
m1 = 0.025 | – | 0.964 ± 0.014
m1 = 0.051 | 783.95 ± 0.22 | 0.866 ± 0.014
m1 = 0.087 | – | 0.796 ± 0.014
m1 = 0.102 | 788.64 ± 0.22 | –
m1 = 0.153 | 793.14 ± 0.21 | –
m1 = 0.214 | – | 0.685 ± 0.016
m1 = 0.234 | 800.17 ± 0.21 | –
m1 = 0.296 | 805.3 ± 0.2 | –
m1 = 0.306 | 806.08 ± 0.2 | –
m1 = 0.308 | – | 0.645 ± 0.017
m1 = 0.355 | 810.02 ± 0.2 | –
m1 = 0.401 | 813.72 ± 0.2 | –
m1 = 0.411 | – | 0.585 ± 0.019
m1 = 0.448 | 817.38 ± 0.19 | –
m1 = 0.518 | 822.69 ± 0.19 | 0.547 ± 0.02
m1 = 0.62 | 830.19 ± 0.18 | –
m1 = 0.707 | 836.34 ± 0.18 | –
m1 = 0.804 | 843.03 ± 0.18 | –
m1 = 0.815 | – | 0.494 ± 0.022
m1 = 0.905 | 849.7 ± 0.17 | –
m1 = 1.012 | 856.34 ± 0.17 | –
m1 = 1.223 | – | 0.462 ± 0.022
m1 = 1.614 | – | 0.427 ± 0.024
m1 = 2.029 | – | 0.408 ± 0.024
m1 = 2.416 | – | 0.392 ± 0.025
m1 = 2.82 | – | 0.373 ± 0.025
m1 = 3.493 | – | 0.361 ± 0.026

CCCCO [butan-1-ol]
[1]
Details | mass density [kg/m3] | speed of sound [m/s]
– | 786.32 ± 0.12 | 1157.3 ± 0.8

CCC(C)O (stereo unspecified) [butan-2-ol]
[1]
Details | mass density [kg/m3] | speed of sound [m/s]
– | 780.4 ± 0.15 | 1120.2 ± 1

CCCCCO [pentan-1-ol]
[1]
Details | mass density [kg/m3] | speed of sound [m/s]
– | 792.14 ± 0.24 | 1192.9 ± 1.3

CCCO [propan-1-ol]
[1]
Details | mass density [kg/m3] | speed of sound [m/s]
– | 779.09 ± 0.13 | 1121.8 ± 0.8

CC(C)O [propan-2-ol]
[1]
Details | mass density [kg/m3] | speed of sound [m/s]
– | 758.63 ± 0.13 | 1050.9 ± 0.8
